The test system of one series is 3T3-L1 cells. Put plainly: Inhibition test on adipocyte differentiation (counting of Oil Red O stained cells). The settings on record: 3 days in differentiation medium, microscopical counting of Oil Red O stained cells. The class given is cell-based, mouse. As to the method: (§1) 3T3-L1 mouse embryonic fibroblast was cultured according to Singh's method (Singh R, Testosterone inhibits adipogenic differentiation in 3T3-L1 cells: Nuclear translocation of androgen receptor complex with β-catenin and T-cell factor 4 may bypass canonical WNT signaling to down-regulate adipogenic transcription factors, Endocrinology, 2006, 147, 141 to 154).
(§2) 3T3-L1 cells supplied by Korean cell line bank were cultured on a Dulbecco's modified Eagle's medium (DMEM) medium that includes 10% bovine calf serum and 1% penicillin-streptomycin mixture. When they reached confluence, culturing was continued for further 2 to 3 days. Thereafter, the medium was replaced by a fresh DMEM medium containing 10% fetal bovine serum, 1.7 μM insulin, 0.5 mM 3-isobutyl-1-methylxanthine (IBMX) and 1 μM dexamethasone and culturing was continued for 8 days. For the evaluation of inhibitory activities of capsanthin on adipocyte differentiation and on triglycerides accumulation in adipocyte, a positive control experiments were conducted on capsaicin (sigma) and/or genistein (sigma).
Mouse embryonic 3T3-L1 cells were plated in 12-well culture plate with DMEM containing 10% BCS (Bovine calf serum) and cultured for the proliferation of cells under 5% CO2 atmosphere at 37° C. until confluent phase is appeared. Continued culture for additional 2 days will ensure the clonal expansion. Culture media is replaced with differentiation medium consisting of DMEM, 10% FBS, 1.7 uM insulin, 0.5 mM IBMX, 1 uM dexamethasone and varying amount of capsanthin in DMSO (final concentration of DMSO in the differentiation media were kept under 0.1%) and cultured additional 3 days for the induction of cell differentiation Culture media was removed and washed with PBS and the cells were fixed on the well surface by incubation with 10% formaldehyde for one hour and then washed with PBS. The differentiate cells were stained with Oil Red O solution for 2 hours. The number of adipocyte stained red was counted with microscopical observation.

The subject of a further series is 3T3-L1 cell. In words: Inhibitory activity on triglycerides accumulation in adipocyte (Oil Red O staining). The class given is cell-based, mouse. As to conditions: read-out: IC50-value on triglycerides accumulation in adipocyte. How it is done:
as §1, §2
Negal's Oil red O staining procedure (Negrel R, Culture of adipose precursor cell and cells of clonal lines from animal white adipose tissue, in adipose tissue protocols. G. Ailhaud (ed). Humana press, inc., Totowa, N.J., 2001, 225-237) was adopted to assay the quantities of triglyceides accumulated in adipocytes. The pre-adipocytes (3T3-L1 cell) were cultured in 12-well culture plate for additional two days to induce clonal expansion after the confluent phase. The culture media was replaced with differentiation media which is containing various concentration of capsanthin solution in DMSO (final concentration of DMSO in the differentiation media were kept under 0.1%) and cultured for additional 8 days to induce lipid accumulation. The culture media was removed by aspiration and washed with PBS. The cells were fixed on the surface of culture well by incubation for one hour with 500 ul of 10% formaldehyde solution. After removal of formaldehyde the cells were washed with PBS and then stained by incubation with Oil Red O for 2 hours. After two removal of Oil Red O solution by aspiration the cells were washed with PBS and then Oil Red O in adipocyte was extracted by incubation 10 minutes with 1 ml isopropyl-alcohol. Oil Red O contents in isopropyl-alcohol were assayed by 510 nm absorption on ELISA reader.

Series [1] can be described thus: Stability during fermentation of kochujang. The class given is physicochemical. From the text: Capsanthin is contained in the natural products such as red peppers as the chemically stable esterified-form. Therefore, even when red peppers or the likes are included in fermented foods as the Korean traditional foods like “kimchi” or “kochujang” (also referred to as “gochujang”), original anti-adipogenic activities thereof are retained. On the other hand, it was found in our laboratory that about 35% or more of anti-adipogenic capsaicin component was destroyed during 6 month-long fermentation.
Red pepper is a traditional spicy vegetable food and more than 90% of total consumption in Korea is used to prepare traditional fermented food such as “kimchi” and “kochujang” in Korea. […] Based on this observation, present inventors are claiming that the anti-adipogenic activity of “kochujang” is due more to capsanthin components rather than to the capsaicin or capsaicin metabolite.

Details of series [2]: species or system Sprague-Dawley albino rats. As to conditions: rat, in vivo. As to the method: Male Sprague-Dawley albino rats were used for the analysis of gastro-intestinal absorption of capsanthins. Animals were accommodated in a constant humidity of 50 (±5) % and constant temperature of 25 (±1)° C. under shading control of light and dark with 12 hours intervals. Feeds and water supplies were provided at libidium.
Free-form capsanthin (15 mg/kg body wt) in soy-bean oil was orally administered to group-1 animals and then 4 ml time-course blood samples were collected from the animals to EDTA tubes and centrifuged (3,000 rpm, 10 min) to obtain 1 ml plasma samples. To the plasma samples 1 ml of 1%-BHT in ethanol and 2 ml hexane were mixed, shaked vigorously and centrifuged for 5 minutes at 2,000 rpm to obtain hexane layer for the HPLC-analysis under the HPLC-condition appears in Example 10. (M. A. Grashom, Quantification of carotenoids in chicken plasma after feeding free of esterified lutein and capsanthin using high-performance liquid chromatography and liquid chromatography-mass spectrometry analysis, Poultry science, 2003, 82, 395-401, Hideo E, Carotenoids in human blood plasma after ingesting paprika juice)
Fatty-acyl ester of capsanthin was orally administered to group-2 animals equimolar dosage bases with that of free-form capsanthin. The time course collection of blood and further treatments were conducted as same way with that of group-1 experiments [Ref. to 0086]

Where [3] appears, read: 3T3-L1 cells, 8 days in differentiation media, Oil Red O.

Where two headings read alike, the source gives them in different places.

The text below walks through data of patent US20120315345A1, “FUNCTIONAL FOOD AND PHARMACEUTICAL COMPOSITIONS FOR ANTI-OBESITY COMPRISING CAPSANTHIN AND FATTY-ACYL ESTER OF CAPSANTHIN HAVING ANTI-ADIPOGENIC ACTIVITY” (ESBIOTECH CO., LTD., priority 2011, published 2012).

Take `COc1cc(CNC(=O)CCCC/C=C/C(C)C)ccc1O` [capsaicin]: the 50% inhibitory concentration (IC50) in the series on 3T3-L1 cells (Mus musculus, 72 h) was 3.39 µM; in the series with 3T3-L1 cell (Mus musculus, 3T3-L1, 192 h), 32.6 µM. Moreover, the “Component destroyed during fermentation” value in series [1] (6 month-long fermentation) is at least 35%. The “Chemical alteration during fermentation of kochujang” value in series [1] is “significant decomposition”.

fucoxanthin: the results for the IC50 with 3T3-L1 cells and in the series on 3T3-L1 cell (setting [3]) were 79.1 µM and 54.8 µM, respectively.

For the molecule `CC1=C(/C=C/C(C)=C/C=C/C(C)=C/C=C/C=C(C)/C=C/C=C(C)/C=C/C(=O)[C@]2(C)C[C@@H](O)CC2(C)C)C(C)(C)C[C@H](O)C1` [free-form capsanthin, capsanthin], the 50% inhibitory concentration (IC50) with 3T3-L1 cells was determined as 4.49 µM; in the series on 3T3-L1 cell (setting [3]), 1.31 µM. Besides, the “Molecular species found in the blood by HPLC after oral administration” value in series [2] is “appeared in the blood”.

As to “fatty-acyl ester of capsanthin [esterified-form capsanthin]”, the IC50 with 3T3-L1 cells is 75.4 µM; with 3T3-L1 cell (setting [3]) it was 55.2 µM. Moreover, the “Molecular species found in the blood by HPLC after oral administration” value in series [2] is reported as “not detected”. For the same molecule, the “Chemical alteration during fermentation of kochujang” value in series [1] is recorded as “remained without any chemical alteration”.

For the molecule `O=c1c(-c2ccc(O)cc2)coc2cc(O)cc(O)c12` [genistein], the IC50 came to 28.1 µM with 3T3-L1 cells (Mus musculus, 72 h) and 58.7 µM in the series with 3T3-L1 cell (Mus musculus, 192 h, 3T3-L1 cells, 8 days in differentiation media, Oil Red O).

The term IC50 denotes the concentration that inhibits the measured activity by half.
